Key:
STEME [1] = assay: A. Herbicidal pre-emergence action on harmful plants (Tables A); format: in vivo, Stellaria media; conditions: visual grading after ca. 3 weeks vs untreated controls, 100% = plants have died off, 0% = as control plants
Text: (§1) Seeds of mono- and dicotyledonous weed plants were sown in plastic pots (double sowings with one species of mono- and one species of dicotyledonous weed plants per pot), in sandy loam, and covered with soil. The compounds according to the invention, formulated in the form of wettable powders (WP) or as emulsifiable concentrates (EC), were applied to the surface of the covering soil as aqueous suspension or emulsion, with the addition of 0.5% of an additive, at an application rate of 6001 of water per hectare (converted). Following treatment, the pots were placed in a greenhouse and kept under optimum growth conditions for the test plants. The visual grading of the damage to the test plants was carried out after ca. 3 weeks in comparison to untreated controls (herbicidal effect in percent (%): 100% effect = plants have died off, 0% effect = as control plants). Tables A1 to A12, below, show the effects of selected compounds of the general formula (I) according to table 1 on various harmful plants and an application rate corresponding to 1280 g/ha or below obtained by the experimental procedure mentioned above. Table A1: pre-emergence activity at 1280g/ha against ABUTH in %

DIGSA = assay: as above; format: in vivo, Digitaria sanguinalis
Text: as §1

VERPE = assay: B. Herbicidal post-emergence action on harmful plants (Tables B); format: in vivo, Veronica persica; conditions: application rate 1280 g/ha; Table B11a
Description: (§2) Seeds of mono- and dicotyledonous weed plants were placed in plastic pots in sandy loam soil (doubly sown with in each case one species of mono- or dicotyledonous weed plants per pot), covered with soil and cultivated in a greenhouse under controlled growth conditions. 2 to 3 weeks after sowing, the test plants were treated at the one-leaf stage. The compounds of the invention, formulated in the form of wettable powders (WP) or as emulsion concentrates (EC), were applied onto the green parts of the plants as aqueous suspension or emulsion with addition of 0.5% additive at a water application rate of 600 liters per hectare (converted). After the test plants had been kept in the greenhouse under optimum growth conditions for about 3 weeks, the activity of the preparations was rated visually in comparison to untreated controls. For example, 100% activity = the plants have died, 0% activity = like control plants. Tables B1 to B12, below, show the effects of selected compounds of the general formula (I) according to table 1 on various harmful plants and an application rate corresponding to 1280 g/ha or below obtained by the experimental procedure mentioned above. Table B1a: post-emergence activity at 1280g/ha against ABUTH in %

LOLRI = assay: A. Herbicidal pre-emergence action on harmful plants (Tables A); format: in vivo, Lolium rigidum; conditions: visual grading after ca. 3 weeks vs untreated controls, 100% = plants have died off, 0% = as control plants
Text: as §1

SETVI = assay: as above; format: in vivo, Setaria viridis; conditions: visual grading after ca. 3 weeks vs untreated controls, 100% = plants have died off, 0% = as control plants
Text: as §1

MATIN = assay: as above; format: in vivo, Matricaria inodora; conditions: visual grading after ca. 3 weeks vs untreated controls, 100% = plants have died off, 0% = as control plants
Text: as §1

AMARE [2] = assay: B. Herbicidal post-emergence action on harmful plants (Tables B); format: in vivo, Amaranthus retroflexus; conditions: application rate 1280 g/ha; Table B8
Description: as §2

ECHCG = assay: A. Herbicidal pre-emergence action on harmful plants (Tables A); format: in vivo, Echinochloa crus-galli; conditions: visual grading after ca. 3 weeks vs untreated controls, 100% = plants have died off, 0% = as control plants
Text: as §1

STEME [3] = assay: B. Herbicidal post-emergence action on harmful plants (Tables B); format: in vivo, Stellaria media; conditions: application rate 1280 g/ha; Table B6
Description: as §2

POAAN = assay: A. Herbicidal pre-emergence action on harmful plants (Tables A); format: in vivo, Poa annua
Text: as §1

ALOMY = assay: as above; format: in vivo, Alopecurus myosuroides; conditions: application rate 1280 g/ha; Table A9a
Text: as §1

AMARE [4] = assay: as above; format: in vivo, Amaranthus retroflexus
Text: as §1

[5] = application rate 320 g/ha, Table A12b
[6] = application rate 1280 g/ha, Table A12a
[7] = application rate 320 g/ha, Table A7b
[8] = application rate 1280 g/ha, visual grading after ca. 3 weeks vs untreated controls, 100% = plants have died off, 0% = as control plants
[9] = application rate 80 g/ha, Table A7c

SMILES | pre-emergence activity against STEME (STEME [1]; application rate 1280 g/ha) [%] | pre-emergence activity against DIGSA (DIGSA; [5]) [%] | pre-emergence activity against DIGSA (DIGSA; [6]) [%] | pre-emergence activity against LOLRI (LOLRI; application rate 1280 g/ha) [%] | pre-emergence activity against SETVI (SETVI; application rate 1280 g/ha) [%] | pre-emergence activity against MATIN (MATIN; application rate 1280 g/ha) [%] | post-emergence activity against AMARE (AMARE [2]) [%] | pre-emergence activity against ECHCG (ECHCG; application rate 320 g/ha) [%] | pre-emergence activity against ECHCG (ECHCG; application rate 1280 g/ha) [%] | post-emergence activity against STEME (STEME [3]) [%] | pre-emergence activity against POAAN (POAAN; [7]) [%] | pre-emergence activity against POAAN (POAAN; [8]) [%] | pre-emergence activity against LOLRI (LOLRI; application rate 320 g/ha) [%] | pre-emergence activity against POAAN (POAAN; [9]) [%] | further results
Cn1cc(C(=O)N2CCC2Cc2c(F)cccc2Cl)c(COCC(F)F)n1 (racemic) [Example I-107] | 90 | 90 | 100 | 90 | 100 | 100 | 90 | 90 | 100 | 90 | 100 | 100 | – | – | post-emergence activity against VERPE (VERPE): 90%
CCOCc1nn(C)cc1C(=O)N1CCC1Cc1c(F)cccc1Cl (racemic) [Example I-110] | 90 | 90 | 90 | 100 | 100 | 90 | 100 | 90 | 100 | – | 90 | 100 | 90 | – | –
COCc1nn(C)cc1C(=O)N1CCC1Cc1ccccc1Cl (racemic) [Example I-113] | – | – | – | – | – | 90 | 90 | – | 90 | – | 100 | 100 | – | – | –
COCc1nn(C)cc1C(=O)N1CCCC1Cc1c(F)cccc1Cl (single isomer, unassigned) [Example I-087] | 90 | 100 | 100 | 100 | 100 | 90 | 90 | 100 | 100 | 90 | 100 | 100 | 100 | 100 | pre-emergence activity against STEME (STEME [1]; application rate 320 g/ha): 90%; pre-emergence activity against DIGSA (DIGSA; application rate 80 g/ha, Table A12c): 90%; pre-emergence activity against LOLRI (LOLRI; application rate 80 g/ha): 100%; pre-emergence activity against SETVI (SETVI; application rate 80 g/ha): 100%; pre-emergence activity against SETVI (SETVI; application rate 320 g/ha): 100%; pre-emergence activity against MATIN (MATIN; application rate 320 g/ha): 90%; pre-emergence activity against ALOMY (ALOMY): 90%; pre-emergence activity against ECHCG (ECHCG; application rate 80 g/ha): 90%; pre-emergence activity against AMARE (AMARE [4]; application rate 320 g/ha, Table A8b): 90%; pre-emergence activity against AMARE (AMARE [4]; [8]): 90%
C=CCOCc1c(C(=O)N2CCCC2Cc2ccccc2F)cnn1C (single isomer, unassigned) [Example I-144] | 90 | – | 90 | – | 90 | – | 90 | 90 | 100 | – | 100 | 100 | – | 100 | –

Source: patent EP4417602A1, “SUBSTITUTED PYRAZOLE CARBOXAMIDES, SALTS THEREOF AND THEIR USE AS HERBICIDALLY ACTIVE SUBSTANCES” (Bayer AG, priority 2023, dated 2024)
